Data on two compounds can be found in ChEMBL document CHEMBL3112532, “Synthesis, [¹⁸F] radiolabeling, and evaluation of poly (ADP-ribose) polymerase-1 (PARP-1) inhibitors for in vivo imaging of PARP-1 using positron emission tomography” (Bioorg Med Chem, 2014).

The test system of series [1] is Tumour. Nature of the series: Drug uptake in tumor of athymic nu/nu mouse xenografted with human MDA-MB-231 cells at 200 uCi measured at 60 mins by microPET image analysis in presence of olaparib. The following applies: in vivo, 1 h. In kind it is ADME, Neoplasm. (Xenograft models place foreign cells or tissue in a host animal.)
Series [2] concerns Tumour. The experiment in a line: Drug uptake in tumor of athymic nu/nu mouse xenografted with human MDA-MB-436 cells at 200 uCi measured at 60 mins by microPET image analysis in presence of 5,6-Dihydro-2-(4-(2-fluoroethoxy)phenyl)-imidazo[4,5,1-jk][1,4]benzodiazepin-7(4H)-one. In kind it is ADME, Neoplasm. The following applies: 1 h.
For series [3], the system named is Tumour. Nature of the series: Drug uptake in tumor of athymic nu/nu mouse xenografted with human MDA-MB-436 cells at 200 uCi measured at 60 mins by microPET image analysis. In kind it is ADME, Neoplasm. The conditions noted are these: 1 h.
Series [4] concerns the target Poly [ADP-ribose] polymerase 1 (Homo sapiens, UniProt P09874). Nature of the series: Inhibition of PARP-1 (unknown origin) assessed as NAD+ consumption after 20 mins by fluorometric analysis in presence of activated DNA.

Chain of Poly [ADP-ribose] polymerase 1 (P09874 whole entry): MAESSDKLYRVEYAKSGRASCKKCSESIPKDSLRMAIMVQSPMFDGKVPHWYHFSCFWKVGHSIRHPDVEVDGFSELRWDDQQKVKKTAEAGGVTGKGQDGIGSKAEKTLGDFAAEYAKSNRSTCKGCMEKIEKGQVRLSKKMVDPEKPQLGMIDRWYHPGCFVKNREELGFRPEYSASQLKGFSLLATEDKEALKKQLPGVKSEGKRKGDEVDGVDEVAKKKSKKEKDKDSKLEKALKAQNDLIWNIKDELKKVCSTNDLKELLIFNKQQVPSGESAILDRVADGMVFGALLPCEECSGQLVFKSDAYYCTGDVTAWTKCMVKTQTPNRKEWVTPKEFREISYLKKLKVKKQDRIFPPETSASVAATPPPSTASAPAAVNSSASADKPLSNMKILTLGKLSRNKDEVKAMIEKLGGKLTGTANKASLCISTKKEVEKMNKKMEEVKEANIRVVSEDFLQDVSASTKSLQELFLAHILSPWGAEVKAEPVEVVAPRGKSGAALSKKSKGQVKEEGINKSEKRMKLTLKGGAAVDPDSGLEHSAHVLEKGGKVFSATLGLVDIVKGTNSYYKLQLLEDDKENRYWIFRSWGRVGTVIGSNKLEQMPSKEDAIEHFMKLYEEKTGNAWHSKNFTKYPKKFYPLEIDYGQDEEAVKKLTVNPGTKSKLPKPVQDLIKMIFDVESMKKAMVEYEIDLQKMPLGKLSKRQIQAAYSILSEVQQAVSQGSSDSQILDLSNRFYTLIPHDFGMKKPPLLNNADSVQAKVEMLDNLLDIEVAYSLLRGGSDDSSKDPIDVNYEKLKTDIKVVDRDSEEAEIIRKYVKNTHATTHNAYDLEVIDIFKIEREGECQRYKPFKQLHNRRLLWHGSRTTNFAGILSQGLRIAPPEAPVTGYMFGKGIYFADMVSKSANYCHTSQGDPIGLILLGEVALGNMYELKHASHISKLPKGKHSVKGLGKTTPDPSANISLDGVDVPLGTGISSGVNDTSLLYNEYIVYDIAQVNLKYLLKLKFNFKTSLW

Turning to `O=C1NCCn2c(-c3ccc(OCC[18F])cc3)nc3cccc1c32`, the Drug uptake result in series [1] is “Not Active”; in series [2], “Not Active”; in series [3], “Active”.

In the case of `O=C1NCCn2c(-c3ccc(OCCF)cc3)nc3cccc1c32`, in series [4], the IC50 was found to be 6.3 nM.

Usually IC50 stands for the concentration needed to halve the response being measured.
